Reference: US10676431B2, “Phenylpyrrolidinone formyl peptide 2 receptor agonists” (BRISTOL-MYERS SQUIBB COMPANY, priority 2018, dated 2020)

Legend:
human FPR2 = human FPR2 (Homo sapiens (Human), UniProt P25090); assay: FPR2 cyclic adenosine monophosphate (cAMP) assay; type: cell-based; settings: CHO cells overexpressing human FPR2; forskolin 5 μM, IBMX 200 μM; inhibition of cAMP production, HTRF; read-out: hFPR2 cAMP2 EC50
Protocol: (§1) FPR2 and FPR1 Cyclic Adenosine Monophosphate (cAMP) Assays. A mixture of forskolin (5 μM final for FPR2 or 10 μM final for FPR1) and IBMX (200 μM final) were added to 384-well Proxiplates (Perkin-Elmer) pre-dotted with test compounds in DMSO (1% final) at final concentrations in the range of 0.020 nM to 100 μM. Chinese Hamster Ovary cells (CHO) overexpressing human FPR1 or human FPR2 receptors were cultured in F-12 (Ham's) medium supplemented with 10% qualified FBS, 250 μg/ml zeocin and 300 μg/ml hygromycin (Life Technologies). Reactions were initiated by adding 2,000 human FPR2 cells per well or 4,000 human FPR1 cells per well in Dulbecco's PBS (with calcium and magnesium) (Life Technologies) supplemented with 0.1% BSA (Perkin-Elmer). The reaction mixtures were incubated for 30 min at room temperature. The level of intracellular cAMP was determined using the HTRF HiRange cAMP assay reagent kit (Cisbio) according to manufacturer's instruction. Solutions of cryptate conjugated anti-cAMP and d2 fluorophore-labelled cAMP were made in a supplied lysis buffer separately. Upon completion of the reaction, the cells were lysed with equal volume of the d2-cAMP solution and anti-cAMP solution. After a 1-h room temperature incubation, time-resolved fluorescence intensity was measured using the Envision (Perkin-Elmer) at 400 nm excitation and dual emission at 590 nm and 665 nm. A calibration curve was constructed with an external cAMP standard at concentrations ranging from 1 μM to 0.1 pM by plotting the fluorescent intensity ratio from 665 nm emission to the intensity from the 590 nm emission against cAMP concentrations. The potency and activity of a compound to inhibit cAMP production was then determined by fitting to a 4-parametric logistic equation from a plot of cAMP level versus compound concentrations.

human FPR1 = human FPR1 (Homo sapiens (Human), UniProt P21462); assay: FPR1 cyclic adenosine monophosphate (cAMP) assay; type: cell-based; settings: CHO cells overexpressing human FPR1; forskolin 10 μM, IBMX 200 μM; inhibition of cAMP production, HTRF; read-out: hFPR1 cAMP EC50
Protocol: as §1, with “After a 1-h room temperature incubation, time-resolved fluorescence intensity was measured using the Envision (Perkin-Elmer) at 400 nm excitation and dual emission at 590 nm and 665 nm. A calibration curve was constructed with an external cAMP standard at concentrations ranging from 1 μM to 0.1 pM by plotting the fluorescent intensity ratio from 665 nm emission to the intensity from the 590 nm emission against cAMP concentrations.” left out

Chain of human FPR2 (P25090 whole entry): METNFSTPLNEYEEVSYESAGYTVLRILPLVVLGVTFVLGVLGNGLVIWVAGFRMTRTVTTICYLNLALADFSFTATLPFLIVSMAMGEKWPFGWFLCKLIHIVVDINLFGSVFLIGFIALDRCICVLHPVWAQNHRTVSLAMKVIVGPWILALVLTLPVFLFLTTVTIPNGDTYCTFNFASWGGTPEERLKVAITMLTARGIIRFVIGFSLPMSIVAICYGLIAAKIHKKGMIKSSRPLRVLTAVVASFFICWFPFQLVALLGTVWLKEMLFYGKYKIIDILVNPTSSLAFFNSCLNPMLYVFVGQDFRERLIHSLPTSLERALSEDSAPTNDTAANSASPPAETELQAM
Chain of human FPR1 (P21462 whole entry): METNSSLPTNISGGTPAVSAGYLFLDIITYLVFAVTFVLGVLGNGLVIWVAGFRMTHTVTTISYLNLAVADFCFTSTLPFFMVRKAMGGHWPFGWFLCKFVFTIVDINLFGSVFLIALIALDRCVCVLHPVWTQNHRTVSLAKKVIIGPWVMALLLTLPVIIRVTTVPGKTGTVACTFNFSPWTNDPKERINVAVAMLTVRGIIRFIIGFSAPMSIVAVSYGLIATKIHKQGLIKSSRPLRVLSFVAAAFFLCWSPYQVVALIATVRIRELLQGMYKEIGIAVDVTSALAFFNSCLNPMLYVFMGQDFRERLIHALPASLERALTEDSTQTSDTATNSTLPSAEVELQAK

| EC50 (human FPR2) | EC50 (human FPR1) | Structure (SMILES) |
| --- | --- | --- |
| 43 nM | 0.45 µM | CC(=O)NC(C)c1cccc(-c2ccc(N3CC[C@@H](NC(=O)Nc4ccc(Cl)cc4F)C3=O)c(F)c2F)c1 (stereo partly drawn) [Example 44] |
| 3.6 nM | 0.5 µM | O=C(Nc1ccc(C(F)(F)F)cc1)N[C@@H]1CCN(c2ccc(-c3ccccc3CO)c(F)c2F)C1=O [Example 41] |
| 2.1 nM | 0.031 µM | N#Cc1ccccc1-c1ccc(N2CC[C@@H](NC(=O)Nc3ccc(Cl)cc3F)C2=O)c(F)c1F [Example 9] |
| 8.2 nM | 1.3 µM | CP(C)(=O)c1ccccc1-c1ccc(N2CC[C@@H](NC(=O)Nc3ccc(OC(F)(F)F)cc3)C2=O)c(F)c1F [Example 51] |
| 1.4 nM | 0.086 µM | CP(C)(=O)c1ccccc1-c1ccc(N2CC[C@@H](NC(=O)Nc3ccc(C(F)(F)F)cc3F)C2=O)c(Cl)c1Cl [Example 80] |
| 3.3 nM | 0.12 µM | CS(=O)(=O)Nc1ccccc1-c1ccc(N2CC[C@@H](NC(=O)Nc3ccc(C(F)(F)F)cc3F)C2=O)c(C2CC2)c1 [Example 43] |
| 4 nM | 0.43 µM | O=C(Nc1ccc(C(F)(F)F)cc1F)N[C@@H]1CCN(c2ccc(-c3ccccc3CO)c(F)c2F)C1=O [Example 31] |
| 2.9 nM | 0.075 µM | Cc1c(N2CC[C@@H](NC(=O)Nc3ccc(Cl)cc3F)C2=O)ccc(-c2ccccc2P(C)(C)=O)c1F [Example 96] |
| 0.68 nM | 0.23 µM | CS(=O)(=O)Nc1ccccc1-c1ccc(N2CC[C@@H](NC(=O)Nc3ccc(Cl)cc3F)C2=O)c(F)c1F [Example 5] |
| 1.2 nM | 0.055 µM | CC1C[C@@H](NC(=O)Nc2ccc(C(F)(F)F)cc2F)C(=O)N1c1ccc(-c2ccccc2P(C)(C)=O)c(F)c1F (stereo partly drawn) [Example 115] |
| 1.2 nM | 0.079 µM | CP(C)(=O)c1ccccc1-c1ccc(N2CC[C@@H](NC(=O)Nc3ccc(C(F)(F)F)cc3F)C2=O)c(F)c1Cl [Example 77] |
| 1.4 nM | 0.17 µM | CC(C)c1cc(-c2ccccc2NS(C)(=O)=O)ccc1N1CC[C@@H](NC(=O)Nc2ccc(C(F)(F)F)cc2F)C1=O [Example 37] |
| 5.67 nM | 4.4 µM | CP(C)(=O)c1ccccc1-c1ccc(N2CC[C@@H](NC(=O)Nc3cnc(Cl)cn3)C2=O)c(F)c1F [Example 63] |
| 0.39 nM | 0.59 µM | CC1(C)CN(c2ccc(-c3cccnc3P(C)(C)=O)c(F)c2F)C(=O)[C@@H]1NC(=O)Nc1ccc(Cl)cc1F [Example 113] |
| 2.5 nM | 1500 µM | CP(C)(=O)c1ccccc1-c1ccc(N2CC[C@@H](NC(=O)Nc3cccc(Cl)c3)C2=O)c(F)c1F [Example 134] |
| 0.89 nM | 0.17 µM | CP(C)(=O)c1ncccc1-c1ccc(N2CC[C@@H](NC(=O)Nc3ccc(C(F)(F)F)cc3F)C2=O)c(F)c1F [Example 73, (R)-1-(1-(4-(2-(dimethylphosphoryl)pyridin-3-yl)-2,3-difluorophenyl)-2-oxopyrrolidin-3-yl)-3-(2-fluoro-4-(trifluoromethyl)phenyl)urea] |
| 2.9 nM | 720 µM | CP(C)(=O)c1ccccc1-c1ccc(N2CC[C@@H](NC(=O)Nc3ccc(Cl)s3)C2=O)c(F)c1F [Example 135] |
| 16 nM | 4.1 µM | CS(=O)(=O)Nc1ccccc1-c1ccc(N2CC[C@@H](NC(=O)Nc3ccc(Cl)cn3)C2=O)c(F)c1F [Example 17] |
| 10 nM | 1.5 µM | CS(=O)(=O)Nc1ccccc1-c1ccc(N2CC[C@@H](NC(=O)Nc3cnc(Cl)cn3)C2=O)c(F)c1F [Example 15] |
| 32 nM | 0.2 µM | CP(C)(=O)c1ccccc1-c1ccc(N2CC[C@@H](NC(=O)Nc3ccc(Cl)cc3F)C2=O)c(F)c1C(F)F [Example 95] |
| 2.4 nM | 0.019 µM | CC1C[C@@H](NC(=O)Nc2ccc(Cl)cc2F)C(=O)N1c1ccc(-c2ccccc2S(C)(=O)=O)c(F)c1F (stereo partly drawn) [Example 129] |

| EC50 (human FPR2) | EC50 (human FPR1) | Structure (SMILES) |
| --- | --- | --- |
| 22 nM | 0.078 µM | O=C(Nc1ccc(Cl)cc1)N[C@@H]1CCN(c2ccc(-c3cccnc3F)c(F)c2F)C1=O [Example 19] |
| 3.5 nM | 0.042 µM | CC(C)c1cc(-c2ccccc2CO)ccc1N1CC[C@@H](NC(=O)Nc2ccc(Cl)cc2F)C1=O [Example 38] |
| 6.3 nM | 0.61 µM | CS(=N)(=O)c1ccccc1-c1ccc(N2CC[C@@H](NC(=O)Nc3ccc(Cl)cc3F)C2=O)c(F)c1F (stereo partly drawn) [Example 58] |
| 0.78 nM | 0.16 µM | CC1C[C@@H](NC(=O)Nc2ccc(C(F)(F)F)cc2F)C(=O)N1c1ccc(-c2cccnc2P(C)(C)=O)c(F)c1F (stereo partly drawn) [Example 120] |
| 3 nM | 0.14 µM | CC(C)c1cc(-c2ccccc2P(C)(C)=O)ccc1N1CC[C@@H](NC(=O)Nc2ccc(Cl)cc2F)C1=O [Example 45] |
| 5.7 nM | 3 µM | CC1(C)CN(c2ccc(-c3ccccc3P(C)(C)=O)c(F)c2F)C(=O)[C@@H]1NC(=O)Nc1cnc(Cl)cn1 [Example 130] |
| 0.077 nM | 0.02 µM | CP(C)(=O)c1c(F)cccc1-c1ccc(N2CC[C@@H](NC(=O)Nc3ccc(Cl)cc3F)C2=O)c(F)c1F [Example 70] |
| 2.48 nM | 1.3 µM | CCP(=O)(CC)c1ccccc1-c1ccc(N2CC[C@@H](NC(=O)Nc3ncc(Cl)cc3F)C2=O)c(F)c1F [Example 67] |
| 30 nM | 0.54 µM | CP(C)(=O)c1ccccc1-c1ccc(N2C(=O)[C@@H](NC(=O)Nc3ccc(Cl)cc3F)C[C@H]2CO)c(F)c1F [Example 111] |
| 0.79 nM | 0.76 µM | CP(C)(=O)c1ccccc1-c1ccc(N2CC(CO)[C@@H](NC(=O)Nc3ccc(C(F)(F)F)cc3F)C2=O)c(F)c1F (stereo partly drawn) [Example 124] |
| 7.5 nM | 7.7 µM | CP(C)(=O)c1ccccc1-c1ccc(N2CC[C@@H](NC(=O)Nc3ncc(Cl)cc3F)C2=O)c(F)c1F [Example 56] |
| 0.27 nM | 0.39 µM | CP(C)(=O)c1ccccc1-c1ccc(N2C(=O)[C@H](NC(=O)Nc3ccc(Cl)cc3F)C[C@H]2CO)c(F)c1F [Example 112, 1-(4-Chloro-2-fluorophenyl)-3-((3R,5S)-1-(2′-(dimethylphosphoryl)-2,3-difluoro-[1,1′-biphenyl]-4-yl)-5-(hydroxymethyl)-2-oxopyrrolidin-3-yl)urea] |
| 150 nM | > 5 µM | CP(C)(=O)c1ccccc1-c1ccc(N2CC[C@@H](NC(=O)Nc3csc(Cl)c3)C2=O)c(F)c1F [Example 133] |
| 12 nM | 0.12 µM | O=C(Nc1ccc(Cl)cc1)N[C@@H]1CCN(c2ccc(-c3ccccc3F)c(F)c2F)C1=O [Example 16] |
| 3.7 nM | 0.11 µM | CS(=O)(=O)Nc1ncccc1-c1ccc(N2CC[C@@H](NC(=O)Nc3ccc(Cl)cc3F)C2=O)c(C2CC2)c1 [Example 48] |
| 0.81 nM | 0.61 µM | CC1C[C@@H](NC(=O)Nc2ccc(Cl)cc2F)C(=O)N1c1ccc(-c2cccnc2P(C)(C)=O)c(F)c1F (stereo partly drawn) [Example 122] |
| 33 nM | 1.5 µM | CC(N)c1cccc(-c2ccc(N3CC[C@@H](NC(=O)Nc4ccc(Cl)cc4)C3=O)c(F)c2F)c1 (stereo partly drawn) [Example 22] |
| 0.91 nM | 0.25 µM | CS(=O)(=O)Nc1ccccc1-c1ccc(N2CC[C@@H](NC(=O)Nc3ccc(Cl)cc3F)C2=O)c(F)c1 [Example 32] |
| 4.6 nM | 0.05 µM | CC(C)c1cc(-c2ccccc2S(C)(=O)=O)ccc1N1CC[C@@H](NC(=O)Nc2ccc(Cl)cc2F)C1=O [Example 40] |
| 6.5 nM | 2.5 µM | CS(=O)(=O)Nc1ccccc1-c1ccc(N2CC[C@@H](NC(=O)Nc3ncc(Cl)cc3F)C2=O)c(F)c1F [Example 13] |
| 1.1 nM | 0.22 µM | O=C(Nc1ccc(Cl)cc1)N[C@@H]1CCN(c2ccc(-c3ccccc3CO)c(F)c2F)C1=O [Example 3] |
